# Source: PMC11079024, “Identification of a family of species-selective complex I inhibitors as potential anthelmintics” (Nature Communications, 2024)
# Where two headings read alike, the source gives them in different places.
# Legend:
# [1] = system: ben-1 mutant (ECA882) C. elegans; assay: microbe, parasite or virus in culture; conditions: for LC50 / viability at 15.6 µM / viability at 31.3 µM / viability at 62.5 µM / viability at 125 µM / viability at 250 µM / viability at 500 µM / viability at 1000 µM: Caenorhabditis elegans; for viability at 15.6 µM / viability at 31.3 µM / viability at 62.5 µM / viability at 125 µM / viability at 250 µM / viability at 500 µM / viability at 1000 µM: read-out: C. elegans ben-1(e1880) development/viability; for C. elegans L1 relative development & viability: ECA882 deletion (ben-1); for C. elegans L1 relative development & viability (score 0-1 relative to DMSO controls): strain ECA882, deletion (ben-1)
# Description: Liquid development and viability assays were adapted from a previously established chemical screening protocol (Burns et al.)[24]. In brief, a saturated culture of E. coli HB101 was concentrated 2-fold in liquid NGM and 40 μL of this suspension was distributed to each well of a 96-well flat-bottom culture plate. 0.5 μL chemical solution (or DMSO alone) was added to each well (1% DMSO v/v) using either a multi-channel pipette or a pinning tool (V&P Scientific). L1 worms synchronized from an embryo preparation performed the day prior were diluted to a concentration of ~2 worms/μL in M9 buffer; 10 μL worm suspension was then added to each well. Culture plates were sealed with parafilm and placed in a plastic container lined with wet paper towels to prevent evaporation. Containers were then incubated for 6 days at 20 °C with shaking at 165 rpm. Following incubation, 300 μL M9 was added to each well to decrease the turbidity of the HB101-NGM suspension. Single images of each microplate well were then taken on a Nikon Ti Eclipse inverted microscope (Nikon NIS Elements AR). Images were processed using Python scripts to isolate worm-associated pixels from background. Scores of worm development and viability were determined as the sum of worm-associated pixels in each well. Development/viability scores for each well were divided by the development /viability scores for the corresponding DMSO controls, resulting in a relative viability value for each chemical. At least three biological replicates were performed for each dose-response experiment; relative viability values were averaged across replicates. […]
# anthelmintics. a. Chemical structures of four commercial benzimidazole anthelmintics (e.g., albendazole, […]
# Dose response of four commercial […]
# elegans strains: N2, wild type; ECA882, deletion (ben-1); ECA917, F200Y (ben-1); ECA1075, F167Y (ben-1); ECA1080, E198A (ben-1); CB3474, G104D (ben-1). The colour-coded scale denotes the phenotypic outcome of drug treatment (e.g., motility or viability) relative to DMSO controls; white/pale- […]
# death and arrested development. c. […]
# benzimidazole anthelmintics (blue) were conducted in C. elegans development and viability assays for wild type (N2) and ben-1 mutant (ECA882) C. elegans (see Supplementary Date File 1).
# All data used for generation of dose-response curves is the mean of at least three […]
# Supplementary Figure 7 (continued). Davie et al.
# [2] = molecular target: B. taurus (heart) complex I (Bos taurus, UniProt P03887+P17694+P42026); assay: biochemical; format: biochemical
# How it was run: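 Complex I activity followed as DCIP reduction (600 nm, 30 s reads, 15 min) with 80 μM NADH and 60 μM decylubiquinone in 25 mM KPi pH 7.5 containing 2 μM antimycin A and 2 mM KCN. Freeze-thawed mouse or bovine heart mitochondria at 0.2 mg/mL; initial-rate percent of solvent control, single-point 100 μM or dose-response.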
# [3] = in vitro; conditions: human
# [4] = read-out: C. elegans (ben-1) Development & Viability Assay LC50
# [5] = read-out: C. elegans ben-1 LC50
# [6] = read-out: C. elegans ben-1 log10 LC50 (converted)
# [7] = 15.6 µM, score 0-1 relative to DMSO, values >1 set to 1
# [8] = 31.3 µM, score 0-1 relative to DMSO, values >1 set to 1
# [9] = B. taurus (heart) mitochondria, mean of replicates, read-out: percent (%) in vitro complex I activity relative to solvent control
# [10] = B. taurus (heart) mitochondria, single replicate, read-out: percent (%) in vitro complex I activity relative to solvent control
# [11] = 1 µM, score 0-1 relative to DMSO, values >1 set to 1
# [12] = 2 µM, score 0-1 relative to DMSO, values >1 set to 1
# [13] = 3.9 µM, score 0-1 relative to DMSO, values >1 set to 1
# Sequence of B. taurus (heart) complex I (P03887 whole entry): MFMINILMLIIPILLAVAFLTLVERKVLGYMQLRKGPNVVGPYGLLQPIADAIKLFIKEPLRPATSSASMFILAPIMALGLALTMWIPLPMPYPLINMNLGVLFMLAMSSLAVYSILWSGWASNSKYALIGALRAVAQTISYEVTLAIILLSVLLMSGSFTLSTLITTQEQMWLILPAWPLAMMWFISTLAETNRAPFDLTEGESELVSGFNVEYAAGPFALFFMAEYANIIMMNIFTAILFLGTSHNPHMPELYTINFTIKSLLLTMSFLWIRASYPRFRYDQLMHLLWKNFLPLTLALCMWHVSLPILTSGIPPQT
# Sequence of B. taurus (heart) complex I (P17694 34-463): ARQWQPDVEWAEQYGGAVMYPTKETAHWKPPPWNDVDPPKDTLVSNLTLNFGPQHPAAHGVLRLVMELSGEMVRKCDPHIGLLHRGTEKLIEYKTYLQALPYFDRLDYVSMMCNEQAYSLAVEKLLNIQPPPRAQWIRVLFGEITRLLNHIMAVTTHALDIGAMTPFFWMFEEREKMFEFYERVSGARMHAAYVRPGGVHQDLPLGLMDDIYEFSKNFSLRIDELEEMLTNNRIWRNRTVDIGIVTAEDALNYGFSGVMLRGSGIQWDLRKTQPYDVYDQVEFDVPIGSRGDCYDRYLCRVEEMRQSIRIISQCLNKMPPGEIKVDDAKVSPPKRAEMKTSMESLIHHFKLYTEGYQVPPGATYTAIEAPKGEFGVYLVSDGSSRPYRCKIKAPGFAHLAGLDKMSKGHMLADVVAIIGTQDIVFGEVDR
# Sequence of B. taurus (heart) complex I (P42026 38-216): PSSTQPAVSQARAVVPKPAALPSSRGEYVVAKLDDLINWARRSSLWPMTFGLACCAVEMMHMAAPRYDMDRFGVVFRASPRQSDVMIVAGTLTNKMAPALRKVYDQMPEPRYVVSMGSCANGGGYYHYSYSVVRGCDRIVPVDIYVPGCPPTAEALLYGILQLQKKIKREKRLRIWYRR
Structure (SMILES),"LC50 [1, 4]",viability at 15.6 µM [1],viability at 31.3 µM [1],viability at 62.5 µM [1],viability at 125 µM [1],viability at 250 µM [1],viability at 500 µM [1],viability at 1000 µM [1],"LC50 [1, 5]","LC50 [1, 6]","C. elegans L1 relative development & viability [1, 7]","C. elegans L1 relative development & viability [1, 8]","C. elegans L1 relative development & viability ([1]; 250 µM, […])","C. elegans L1 relative development & viability ([1]; 500 µM, […])","C. elegans L1 relative development & viability [1, 11]","C. elegans L1 relative development & viability [1, 12]","C. elegans L1 relative development & viability [1, 13]","C. elegans L1 relative development & viability ([1]; 62.5 µM, […])","C. elegans L1 relative development & viability ([1]; 125 µM, […])",other results
CCCn1c(COc2ccc(C)cc2)nc2ccccc21 [Compound 6944471],> 1000 µM,98%,100%,100%,100%,100%,62.1%,100%,> 500 µM,> 500 µM,–,–,–,–,–,–,–,–,–,–
c1ccc2[nH]c(-c3cscn3)nc2c1 [Thiabendazole],–,–,–,–,–,–,–,–,375 µM,375 µM,0.996,1.000,0.967,0.155,–,–,–,–,–,"C. elegans L1 relative development & viability ([1]; 1 µM, […]): 0.926; C. elegans L1 relative development & viability ([1]; 2 µM, […]): 0.954; C. elegans L1 relative development & viability ([1]; 3.9 µM, […]): 0.969; C. elegans L1 relative development & viability ([1]; 62.5 µM, score 0-1 relative to DMSO, values >1 set to 1): 1.000; C. elegans L1 relative development & viability ([1]; 125 µM, score 0-1 relative to DMSO, values >1 set to 1): 1.000"
"COc1ccc(Cc2nccc3cc(OC)c(OC)cc23)cc1OC [Papaverine, reference compound]",–,–,–,–,–,–,–,–,–,–,–,–,–,–,–,–,–,–,–,"remaining activity at 0.125 µM [2, 9]: 93.4%; remaining activity at 0.125 µM [2, 10]: 87.6%; remaining activity at 0.313 µM [2, 9]: 93.3%; remaining activity at 0.313 µM [2, 10]: 92.3%; remaining activity at 0.625 µM [2, 9]: 91.6%; remaining activity at 0.625 µM [2, 10]: 89.2%; remaining activity at 1.5 µM [2, 9]: 83.3%; remaining activity at 1.5 µM [2, 10]: 88.4%; remaining activity at 3 µM ([2]; 3 µM, B. taurus (heart) mitochondria, mean of replicates, read-out: percent (%) in vitro complex I activity relative to solvent control): 76.1%; remaining activity at 15 µM ([2]; 15 µM, B. taurus (heart) mitochondria, mean of replicates, read-out: percent (%) in vitro complex I activity relative to solvent control): 30.1%; remaining activity at 37.5 µM ([2]; 37.5 µM, B. taurus (heart) mitochondria, mean of replicates, read-out: percent (%) in vitro complex I activity relative to solvent control): 12.9%; remaining activity at 75 µM [2, 9]: 6.58%; remaining activity at 75 µM [2, 10]: 9.15%; IC50 ([2]; heart mitochondria, read-out: B. taurus Complex I IC50): 8.5 µM"
"COC(=O)Nc1nc2ccc(C(=O)c3ccccc3)cc2[nH]1 [mebendazole, reference compound]",–,–,–,–,–,–,–,–,> 250 µM,> 250 µM,1.000,1.000,0.623,–,1.000,1.000,1.000,0.948,0.701,–
"COC(=O)Nc1nc2ccc(Sc3ccccc3)cc2[nH]1 [fenbendazole, reference compound]",–,–,–,–,–,–,–,–,> 500 µM,> 500 µM,–,–,0.877,0.667,1.000,1.000,1.000,0.936,0.785,"C. elegans L1 relative development & viability (score 0-1 relative to DMSO controls) ([1]; 1 µM): 1.000; C. elegans L1 relative development & viability (score 0-1 relative to DMSO controls) ([1]; 2 µM): 1.000; C. elegans L1 relative development & viability (score 0-1 relative to DMSO controls) ([1]; 3.9 µM): 1.000; C. elegans L1 relative development & viability (score 0-1 relative to DMSO controls) ([1]; 15.6 µM): 0.861; C. elegans L1 relative development & viability (score 0-1 relative to DMSO controls) ([1]; 31.3 µM): 0.962; C. elegans L1 relative development & viability (score 0-1 relative to DMSO controls) ([1]; 62.5 µM): 0.936; C. elegans L1 relative development & viability (score 0-1 relative to DMSO controls) ([1]; 125 µM): 0.785; C. elegans L1 relative development & viability (score 0-1 relative to DMSO controls) ([1]; 250 µM): 0.877; C. elegans L1 relative development & viability (score 0-1 relative to DMSO controls) ([1]; 500 µM): 0.667; C. elegans L1 relative development & viability ([1]; 15.6 µM, […]): 0.861; C. elegans L1 relative development & viability ([1]; 31.3 µM, […]): 0.962"
Cc1ccc(CSCc2nc3ccccc3[nH]2)cc1 [Compound 7121781],468 µM,87.2%,91.7%,100%,87.1%,86.1%,47.1%,8.1%,–,468 µM,–,–,–,–,–,–,–,–,–,"CC50 at 2 days [3]: 74.2 µM; viability at 2 days, 12.5 µM ([3]; HEK293 cells (Flp-In-293), HEK293 viability, Dose 12.5 µM): 90%; viability at 2 days, 25 µM ([3]; HEK293 cells (Flp-In-293), HEK293 viability, Dose 25 µM): 91.3%; viability at 2 days, 50 µM ([3]; HEK293 cells (Flp-In-293), HEK293 viability, Dose 50 µM): 64.3%; viability at 2 days, 100 µM ([3]; HEK293 cells (Flp-In-293), HEK293 viability, Dose 100 µM): 28.3%; viability ([3]; HEK293 viability, Dose 3.13 µM): 86.1%; viability ([3]; HEK293 viability, Dose 6.25 µM): 87.2%"
